Measurements reported in patent US6358885B1, “Substituted phenylheterocyclic herbicides” (Mississippi State University, priority 1992, dated 2002).

Experiments:
[1] = test system: cheatgrass; test: Test B preemergence/postemergence greenhouse plant response rating 0 to 10; assay type: in vivo, Bromus secalinus; settings: for Plant response rating, Cheatgrass: 0 to 10 scale
Summary of the method: (§1)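 Test chemicals were sprayed onto freshly planted seed and, concurrently, onto young plants between the one and four leaf stage. After a twelve- to sixteen-day greenhouse period, each species was visually compared with untreated controls.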

[2] = test system: chickweed; test: as above; assay type: in vivo, Stellaria media; settings: for Plant response rating, Chickweed: 0 to 10 scale
Summary of the method: as §1

[3] = test system: corn; test: as above; assay type: in vivo, Zea mays; settings: for Plant response rating, Corn: 0 to 10 scale
Summary of the method: as §1

[4] = test system: giant foxtail; test: as above; assay type: in vivo, Setaria faberii; settings: 0 to 10 scale
Summary of the method: as §1

[5] = test system: sorghum; test: as above; assay type: in vivo, Sorghum bicolor; settings: 0 to 10 scale
Summary of the method: as §1

[6] = test system: wild buckwheat; test: as above; assay type: in vivo, Polygonum convolvulus; settings: 0 to 10 scale
Summary of the method: as §1

[7] = test system: wild oat; test: as above; assay type: in vivo, Avena fatua; settings: POSTEMERGENCE, 0 to 10 scale
Summary of the method: as §1

[8] = test system: barley; test: Test C preemergence/postemergence greenhouse plant response rating 0 to 100; assay type: in vivo, Hordeum vulgare; settings: POSTEMERGENCE; for Plant response rating Barley Igri: 0 to 100 scale
Summary of the method: (§2)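 Compounds in non-phytotoxic solvent applied preemergence to sandy loam one day after planting, postemergence at the 1–4 leaf stage, or to ~2.5 cm floodwater over silt loam.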

[9] = test system: chickweed; test: as above; assay type: in vivo, Stellaria media; settings: POSTEMERGENCE; for Plant response rating, Chickweed: 0 to 100 scale
Summary of the method: as §2

[10] = test system: cotton; test: as above; assay type: in vivo, Gossypium hirsutum; settings: POSTEMERGENCE; for Plant response rating, Cotton: 0 to 100 scale
Summary of the method: as §2

[11] = test system: downy brome; test: as above; assay type: in vivo, Bromus tectorum; settings: POSTEMERGENCE; for Plant response rating Downy Brome: 0 to 100 scale
Summary of the method: as §2

[12] = test system: lambsquarters; test: as above; assay type: in vivo, Chenopodium album; settings: POSTEMERGENCE; for Plant response rating Lambsquarters: 0 to 100 scale
Summary of the method: as §2

[13] = test system: ryegrass; test: as above; assay type: in vivo, Lolium multiflorum; settings: POSTEMERGENCE; for Plant response rating Ryegrass: 0 to 100 scale
Summary of the method: as §2

[14] = test system: soybean; test: as above; assay type: in vivo, Glycine max; settings: POSTEMERGENCE; for Plant response rating, Soybean: 0 to 100 scale
Summary of the method: as §2

[15] = test system: sugar beet; test: as above; assay type: in vivo, Beta vulgaris; settings: POSTEMERGENCE; for Plant response rating, Sugar beet: 0 to 100 scale
Summary of the method: as §2

[16] = test system: velvetleaf; test: as above; assay type: in vivo, Abutilon theophrasti; settings: POSTEMERGENCE; for Plant response rating, Velvetleaf: 0 to 100 scale
Summary of the method: as §2

[17] = test system: wild buckwheat; test: as above; assay type: in vivo, Polygonum convolvulus; settings: POSTEMERGENCE; for Plant response rating, Wild buckwheat: 0 to 100 scale
Summary of the method: as §2

[18] = test system: duck salad; test: Test C flood test plant response rating 0 to 100; assay type: in vivo, Heteranthera limosa; settings: for Plant response rating Duck salad: flood test species listed under POSTEMERGENCE, 0 to 100 scale
From the text: The compounds evaluated in this test were formulated in a non-phytoxic solvent and applied to the soil surface before plant seedlings emerged (preemergence application), to water that covered the soil surface (flood application), and to plants that were in the one-to-four leaf stage (postemergence application). A sandy loam soil was used for the preemergence and postemergence tests, while a silt loam soil was used in the flood test. Water depth was approximately 2.5 cm for the flood test and was maintained at this level for the duration of the test. Plant species in the preemergence and postemergence tests consisted of barley (Hordeum vulgare), bedstraw (Galium aparine), blackgrass (Alopecurus myosuroides), chickweed (Stellaria media), corn (Zea mays), cotton (Gossypium hirsutum), crabgrass (Digitaria sanguinalis), downy brome (Bromus tectorum), giant foxtail (Setaria faberii), lambsquarters (Chenopodium album), morningglory (Ipomoea hederacea), pigweed ([…]), rape (Brassica napus), ryegrass (Lolium multiflorum), sorghum (Sorghum bicolor), soybean (Glycine max), speedwell (Veronica persica), sugar beet (Beta vulgaris), velvetleaf (Abutilon theophrasti), wheat (Triticum aestivum), wild buckwheat (Polygonum convolvulus), and wild oat (Avena fatua). All plant species were planted one day before application of the compound for the preemergence portion-of this test. Plantings of these species were adjusted to produce plants of appropriate size for the post-emergence portion of the test. […] All plant species were grown using normal greenhouse practices. Visual evaluations of injury expressed on treated plants, when compared to untreated controls, were recorded approximately fourteen to twenty one days after application of the test compound. […] A dash (-) response means no test result.

In the case of CC(C)COc1cc(-c2nn3c(c2Cl)CCCC3)c(F)cc1Cl [Compound 30], the “Plant response rating (0 to 10 scale), Cheatgrass” value ([1]; POSTEMERGENCE, Rate 50 g/ha) is reported as 6, the “Plant response rating, Cheatgrass” value ([1]; POSTEMERGENCE, Rate 200 g/ha) is reported as 7 and the “Plant response rating, Cheatgrass” value ([1]; PREEMERGENCE, Rate 50 g/ha) is reported as 0. For the same compound, the “Plant response rating, Cheatgrass” value ([1]; Rate 200 g/ha, PREEMERGENCE) was 4, the “Plant response rating (0 to 10 scale), Chickweed” value ([2]; POSTEMERGENCE, Rate 50 g/ha) was 5 and the “Plant response rating, Chickweed” value ([2]; POSTEMERGENCE, Rate 200 g/ha) was 8. For the same compound, the “Plant response rating, Chickweed” value ([2]; PREEMERGENCE, Rate 50 g/ha) was 0, the “Plant response rating, Chickweed” value ([2]; Rate 200 g/ha, PREEMERGENCE) was 3 and the “Plant response rating (0 to 10 scale), Corn” value ([3]; POSTEMERGENCE, Rate 50 g/ha) was 4. For the same compound, the “Plant response rating, Corn” value ([3]; POSTEMERGENCE, Rate 200 g/ha) was 4, the “Plant response rating, Corn” value ([3]; PREEMERGENCE, Rate 50 g/ha) was 0 and the “Plant response rating, Corn” value ([3]; Rate 200 g/ha, PREEMERGENCE) was 1. For the same compound, the “Plant response rating, Giant foxtail” value ([4]; POSTEMERGENCE, Rate 50 g/ha) was 4, the “Plant response rating, Giant foxtail” value ([4]; PREEMERGENCE, Rate 50 g/ha) was 7 and the “Plant response rating, Giant foxtail” value ([4]; Rate 200 g/ha, POSTEMERGENCE) was 5. For the same compound, the “Plant response rating, Giant foxtail” value ([4]; Rate 200 g/ha, PREEMERGENCE) was 8, the “Plant response rating, Sorghum” value ([5]; POSTEMERGENCE, Rate 50 g/ha) was 4 and the “Plant response rating, Sorghum” value ([5]; PREEMERGENCE, Rate 50 g/ha) was 0. The “Plant response rating, Sorghum” value ([5]; Rate 200 g/ha, POSTEMERGENCE) was 6, the “Plant response rating, Sorghum” value ([5]; Rate 200 g/ha, PREEMERGENCE) was 0 and the “Plant response rating, Wild buckwheat” value ([6]; POSTEMERGENCE, Rate 50 g/ha) was 10. For the same compound, the “Plant response rating, Wild buckwheat” value ([6]; PREEMERGENCE, Rate 50 g/ha) was 0, the “Plant response rating, Wild buckwheat” value ([6]; Rate 200 g/ha, POSTEMERGENCE) was 10 and the “Plant response rating, Wild buckwheat” value ([6]; Rate 200 g/ha, PREEMERGENCE) was 6. The “Plant response rating, Wild oat” value ([7]; Rate 50 g/ha) was 5, the “Plant response rating, Wild oat” value ([7]; Rate 200 g/ha) was 6 and the “Plant response rating Barley Igri” value ([8]; 62 g/ha) was 50. For the same compound, the “Plant response rating Barley Igri” value ([8]; 250 g/ha) was 70, the “Plant response rating (0 to 100), Barley Igri” value ([8]; Rate 4 g/ha) was 30 and the “Plant response rating (0 to 100), Barley Igri” value ([8]; Rate 16 g/ha) was 30. The “Plant response rating, Chickweed” value ([9]; 62 g/ha) was 50, the “Plant response rating, Chickweed” value ([9]; 250 g/ha) was 70 and the “Plant response rating (0 to 100), Chickweed” value ([9]; Rate 4 g/ha) was 10. For the same compound, the “Plant response rating (0 to 100), Chickweed” value ([9]; Rate 16 g/ha) was 20, the “Plant response rating, Cotton” value ([10]; 62 g/ha) was 100 and the “Plant response rating, Cotton” value ([10]; 250 g/ha) was 100. The “Plant response rating (0 to 100), Cotton” value ([10]; Rate 4 g/ha) was 100, the “Plant response rating (0 to 100), Cotton” value ([10]; Rate 16 g/ha) was 100 and the “Plant response rating Downy Brome” value ([11]; 62 g/ha) was 60. For the same compound, the “Plant response rating Downy Brome” value ([11]; 250 g/ha) was 90, the “Plant response rating (0 to 100), Downy Brome” value ([11]; Rate 4 g/ha) was 20 and the “Plant response rating (0 to 100), Downy Brome” value ([11]; Rate 16 g/ha) was 40. The “Plant response rating Lambsquarters” value ([12]; 62 g/ha) was 90, the “Plant response rating Lambsquarters” value ([12]; 250 g/ha) was 100 and the “Plant response rating (0 to 100), Lambsquarters” value ([12]; Rate 4 g/ha) was 50. For the same compound, the “Plant response rating (0 to 100), Lambsquarters” value ([12]; Rate 16 g/ha) was 70, the “Plant response rating Ryegrass” value ([13]; 62 g/ha) was 60 and the “Plant response rating Ryegrass” value ([13]; 250 g/ha) was 80. For the same compound, the “Plant response rating (0 to 100), Ryegrass” value ([13]; Rate 4 g/ha) was 20, the “Plant response rating (0 to 100), Ryegrass” value ([13]; Rate 16 g/ha) was 40 and the “Plant response rating, Soybean” value ([14]; 62 g/ha) was 50. For the same compound, the “Plant response rating, Soybean” value ([14]; 250 g/ha) was 50, the “Plant response rating (0 to 100), Soybean” value ([14]; Rate 4 g/ha) was 0 and the “Plant response rating (0 to 100), Soybean” value ([14]; Rate 16 g/ha) was 20. The “Plant response rating, Sugar beet” value ([15]; 62 g/ha) was 100, the “Plant response rating, Sugar beet” value ([15]; 250 g/ha) was 100 and the “Plant response rating (0 to 100), Sugar beet” value ([15]; Rate 4 g/ha) was 80. For the same compound, the “Plant response rating (0 to 100), Sugar beet” value ([15]; Rate 16 g/ha) was 100, the “Plant response rating, Velvetleaf” value ([16]; 62 g/ha) was 100 and the “Plant response rating, Velvetleaf” value ([16]; 250 g/ha) was 100. The “Plant response rating (0 to 100), Velvetleaf” value ([16]; Rate 4 g/ha) was 0, the “Plant response rating (0 to 100), Velvetleaf” value ([16]; Rate 16 g/ha) was 60 and the “Plant response rating, Wild buckwheat” value ([17]; 62 g/ha) was 80. For the same compound, the “Plant response rating, Wild buckwheat” value ([17]; 250 g/ha) was 100, the “Plant response rating (0 to 100), Wild buckwheat” value ([17]; Rate 4 g/ha) was 50 and the “Plant response rating (0 to 100), Wild buckwheat” value ([17]; Rate 16 g/ha) was 70. For the same compound, the “Plant response rating (0 to 100), Duck salad” value ([18]; POSTEMERGENCE section, flood test, Rate 4 g/ha) was 0, the “Plant response rating (0 to 100), Duck salad” value ([18]; Rate 16 g/ha, under POSTEMERGENCE head (flood test species)) was 30 and the “Plant response rating Duck salad” value ([18]; 62 g/ha) was 40. For the same compound, the “Plant response rating Duck salad” value ([18]; 250 g/ha) was 60.
